# Reference: article PMC10410440, “Preclinical PK investigation of a novel IDO1/TDO dual inhibitor—SHR9146 in mouse plasma and tissues by LC-MS/MS” (Frontiers in Oncology, 2023)
# Several values for one entry are separate records, joined by “and”; a condition that tells them apart may be missing. Identical values can stand only once. Like-named read-outs stand apart in the source and are kept apart here.
# Test: Tissue distribution of SHR9146 in mice after oral gavage of 40 mg/kg
# Type: in vivo, ICR mice
# Details: male, 40 mg/kg oral gavage; for concentration at 1 h / concentration at 3 h / concentration at 6 h: ICR, mouse, po
# Method: ICR mice with body weight 16–26 g were supplied by Shanghai Lingchang Biotechnology Co., Ltd. (animal breeding license number SCXK (Shanghai) 2013-0018) and housed at Shanghai Institute of Materia Medica, Chinese Academy of Sciences [animal use license number SYXK (Shanghai) 2015-0027]. The mice used in this study were fasted overnight for 12 h but had free access to water. Food was supplied 4 h post-dose. All experiments in this study were conducted in accordance with the Guidelines for the Care and Use of Laboratory Animals of Shanghai Institute of Materia Medica, Chinese Academy of Sciences.
# Another set of 30 mice were randomly assigned into five groups with equal numbers, males and females, for tissue distribution study with oral gavage at a single dose of 40 mg/kg at predetermined different time points: pre-dose and post dose at 1, 3, 6, and 24 h, respectively. The whole brain, heart, liver, spleen, lung, kidney, bladder, pancreas, testis, ovary, uterus, stomach, small intestine, adrenal gland, skin, skeletal muscle, thyroid gland, and abdominal fat tissues as well as the whole blood and plasma samples were harvested. Tissue samples were washed with 0.9% sodium chloride solution to remove the residual blood or contents, blotted on a filter paper, and stored at −70°C prior to the analysis.
# Protein precipitation was selected for the pretreatment of both the plasma and the tissue homogenate prepared after thawing at room temperature, cut into pieces, and homogenized with a quintuple methanol–water mixture (1:1, v/v) for each tissue sample.
# Briefly as follows, an aliquot of 25-μL plasma or tissue homogenate was spiked with 100 μL of internal standard solution (1 μg/mL for plasma, 0.2 μg/mL for tissue homogenate) and 300 μL of methanol added and vortex mixed for 60 s. The mixture was then centrifuged at 14,000 rpm at 4°C for 5.0 min, and the supernatant was diluted with methanol–water (4:1, v/v) in a ratio of 1:9 for the plasma or 1:1 for the tissue homogenate, and 5 μL of the resulting solution was injected for the LC-MS/MS analysis.
# After oral administration of 40 mg/kg SHR9146, samples in different tissues at predetermined time points (pre-drug administration, post-drug administration at 1, 3, 6, and 24 h) were collected and prepared for the analysis. The drug concentrations of SHR9146 (μg/g or μg/mL) were determined for each mouse, and the mean and standard deviation were further obtained (Table S7).
# [1] = 24 h, individual mice, 40 mg/kg
compound,measurement,setting,value
OCCn1cc(-c2ccc(N3CCC([C@H]4c5c(F)cccc5-c5cncn54)CC3)cc2)cn1 [SHR9146],SHR9146 concentration in Pancreas,"1 h, individual mice, 40 mg/kg",15.265 µg/g and 8.681 µg/g
same,SHR9146 concentration in Plasma,"1 h, individual mice, 40 mg/kg",11.481 µg/mL and 5.761 µg/mL
same,SHR9146 concentration in Small intestine,"1 h, individual mice, 40 mg/kg",24.690 µg/g and 24.120 µg/g
same,SHR9146 concentration in Bladder,"3 h, individual mice, 40 mg/kg",0.390 µg/g and 6.162 µg/g and 6.598 µg/g
same,SHR9146 concentration in Brain,"3 h, individual mice, 40 mg/kg",BLQ
same,SHR9146 concentration in Kidney,"3 h, individual mice, 40 mg/kg",0.314 µg/g and 6.873 µg/g and 7.165 µg/g
same,SHR9146 concentration in Liver,"3 h, individual mice, 40 mg/kg",1.367 µg/g and 13.792 µg/g and 13.853 µg/g
same,SHR9146 concentration in Lung,"3 h, individual mice, 40 mg/kg",0.798 µg/g and 7.286 µg/g and 7.382 µg/g
same,SHR9146 concentration in Pancreas,"3 h, individual mice, 40 mg/kg",0.231 µg/g and 7.160 µg/g and 7.228 µg/g
same,SHR9146 concentration in Small intestine,"3 h, individual mice, 40 mg/kg",0.411 µg/g and 11.992 µg/g and 8.326 µg/g
same,SHR9146 concentration in Brain,"6 h, individual mice",BLQ
same,SHR9146 concentration in Abdominal fat,"6 h, individual mice, 40 mg/kg",BLQ
same,SHR9146 concentration in Adrenal gland,"6 h, individual mice, 40 mg/kg",BLQ and 0.313 μg/g
same,SHR9146 concentration in Bladder,"6 h, individual mice, 40 mg/kg",BLQ and 0.199 μg/g
same,SHR9146 concentration in Heart,"6 h, individual mice, 40 mg/kg",BLQ
same,SHR9146 concentration in Kidney,"6 h, individual mice, 40 mg/kg",0.159 µg/g and 0.129 µg/g and 0.344 µg/g
same,SHR9146 concentration in Liver,"6 h, individual mice, 40 mg/kg",0.702 µg/g and 0.351 µg/g and 0.845 µg/g
same,SHR9146 concentration in Lung,"6 h, individual mice, 40 mg/kg",0.510 µg/g and 0.701 µg/g
same,SHR9146 concentration in Pancreas,"6 h, individual mice, 40 mg/kg",BLQ and 0.127 μg/g
same,SHR9146 concentration in Plasma,"6 h, individual mice, 40 mg/kg",BLQ
same,SHR9146 concentration in Skeletal muscle,"6 h, individual mice, 40 mg/kg",BLQ
same,SHR9146 concentration in Small intestine,"6 h, individual mice, 40 mg/kg",BLQ and 0.152 μg/g
same,SHR9146 concentration in Spleen,"6 h, individual mice, 40 mg/kg",BLQ
same,SHR9146 concentration in Whole blood,"6 h, individual mice, 40 mg/kg",BLQ
same,SHR9146 concentration in thyroid gland,"6 h, individual mice, 40 mg/kg",BLQ
same,SHR9146 concentration in Abdominal fat,"24 h, individual mice",BLQ
same,SHR9146 concentration in Adrenal gland,"24 h, individual mice",BLQ
same,SHR9146 concentration in Bladder,"24 h, individual mice",BLQ
same,SHR9146 concentration in Brain,"24 h, individual mice",BLQ
same,SHR9146 concentration in Heart,"24 h, individual mice",BLQ
same,SHR9146 concentration in Pancreas,"24 h, individual mice",BLQ
same,SHR9146 concentration in Plasma,"24 h, individual mice",BLQ
same,SHR9146 concentration in Skeletal muscle,"24 h, individual mice",BLQ
same,SHR9146 concentration in Small intestine,"24 h, individual mice",BLQ
same,SHR9146 concentration in Spleen,"24 h, individual mice",BLQ
same,SHR9146 concentration in Testis,"24 h, individual mice",BLQ
same,SHR9146 concentration in Whole blood,"24 h, individual mice",BLQ
same,SHR9146 concentration in thyroid gland,"24 h, individual mice",BLQ
same,SHR9146 concentration in Kidney,[1],BLQ
same,SHR9146 concentration in Liver,[1],BLQ
same,SHR9146 concentration in Lung,[1],0.064 µg/g and 0.105 µg/g
same,SHR9146 concentration in Skin,[1],BLQ
same,concentration at 1 h,"abdominal fat, 40 mg/kg, 1 h, Mean (n=3), read-out: SHR9146 concentration in Abdominal fat",7200 ng/g
same,concentration at 3 h,"abdominal fat, 40 mg/kg, 3 h, Mean (n=3), read-out: SHR9146 concentration in Abdominal fat",4070 ng/g
same,concentration at 6 h,"abdominal fat, 40 mg/kg, 6 h, Mean (n=3), read-out: SHR9146 concentration in Abdominal fat",75 ng/g
same,concentration at 1 h,"adrenal gland, 40 mg/kg, 1 h, Mean (n=3), read-out: SHR9146 concentration in Adrenal gland",23600 ng/g
same,concentration at 1 h,"adrenal gland, 40 mg/kg, 1 h, individual mice, read-out: SHR9146 concentration in Adrenal gland",24100 ng/g
same,concentration at 3 h,"adrenal gland, 40 mg/kg, 3 h, Mean (n=3), read-out: SHR9146 concentration in Adrenal gland",8450 ng/g
same,concentration at 6 h,"adrenal gland, 40 mg/kg, 6 h, Mean (n=3), read-out: SHR9146 concentration in Adrenal gland",163 ng/g
same,concentration at 6 h,"adrenal gland, 40 mg/kg, 6 h, individual mice, read-out: SHR9146 concentration in Adrenal gland",177 ng/g
same,concentration at 1 h,"bladder, 40 mg/kg, 1 h, Mean (n=3), read-out: SHR9146 concentration in Bladder",12400 ng/g
same,concentration at 1 h,"bladder, 40 mg/kg, 1 h, individual mice, read-out: SHR9146 concentration in Bladder",12500 ng/g
same,concentration at 3 h,"bladder, 40 mg/kg, 3 h, Mean (n=3), read-out: SHR9146 concentration in Bladder",4380 ng/g
same,concentration at 6 h,"bladder, 40 mg/kg, 6 h, Mean (n=3), read-out: SHR9146 concentration in Bladder",163 ng/g
same,concentration at 6 h,"bladder, 40 mg/kg, 6 h, individual mice, read-out: SHR9146 concentration in Bladder",291 ng/g
same,concentration at 1 h,"brain, 40 mg/kg, 1 h, Mean (n=3), read-out: SHR9146 concentration in Brain",1890 ng/g
same,concentration at 1 h,"brain, 40 mg/kg, 1 h, individual mice, read-out: SHR9146 concentration in Brain",2280 ng/g
same,concentration at 3 h,"brain, 40 mg/kg, 3 h, Mean (n=3), read-out: SHR9146 concentration in Brain",666 ng/g
same,concentration at 3 h,"brain, 40 mg/kg, 3 h, individual mice, read-out: SHR9146 concentration in Brain",1020 ng/g
same,concentration at 1 h,"heart, 40 mg/kg, 1 h, Mean (n=3), read-out: SHR9146 concentration in Heart",7320 ng/g
same,concentration at 1 h,"heart, 40 mg/kg, 1 h, individual mice, read-out: SHR9146 concentration in Heart",8420 ng/g
same,concentration at 3 h,"heart, 40 mg/kg, 3 h, Mean (n=3), read-out: SHR9146 concentration in Heart",2660 ng/g
same,concentration at 6 h,"heart, 40 mg/kg, 6 h, Mean (n=3), read-out: SHR9146 concentration in Heart",48 ng/g
same,concentration at 6 h,"heart, 40 mg/kg, 6 h, individual mice, read-out: SHR9146 concentration in Heart",61 ng/g
same,concentration at 1 h,"kidney, 40 mg/kg, 1 h, Mean (n=3), read-out: SHR9146 concentration in Kidney",11900 ng/g
same,concentration at 1 h,"kidney, 40 mg/kg, 1 h, individual mice, read-out: SHR9146 concentration in Kidney",12300 ng/g
same,concentration at 3 h,"kidney, 40 mg/kg, 3 h, Mean (n=3), read-out: SHR9146 concentration in Kidney",4780 ng/g
